Results: PubChem BioAssay AID248 (DTP/NCI, 2004)
Values joined by “and” are separate entries in the source; they are usually repeats but may differ in a detail not shown here. Equal values may be shown once. Inconclusive results and toxic doses are left out. Cut-off read from the data, not from the text of the source: active = T/C of 150% or more; inactive = T/C below 125%.

Test system: L1210 leukemia ip in BDF1 mice, survival T/C
Assay: NCI In Vivo Anticancer Drug Screen. Data for tumor model L1210 Leukemia (intraperitoneal) in B6D2F1 (BDF1) mice
Conditions: endpoint: mean survival time, higher = longer survival
Summary of the method: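 Tumor cells were implanted, animals were treated, and survival was followed. The result divides the treated measurement by the vehicle-control measurement.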

[1] = dose: 100.0 mg/kg/injection, schedule: Q04DX003 (ip), vehicle: Klucel (hydroxypropylcellulose) (HPC)
[2] = dose: 200.0 mg/kg/injection, schedule: Q04DX003 (ip), vehicle: Klucel (hydroxypropylcellulose) (HPC)
[3] = dose: 400.0 mg/kg/injection, schedule: Q04DX003 (ip), vehicle: Klucel (hydroxypropylcellulose) (HPC)
[4] = dose: 25.0 mg/kg/injection, schedule: Q01DX001 (ip), vehicle: saline
[5] = dose: 100.0 mg/kg/injection, schedule: Q01DX001 (ip), vehicle: saline
[6] = dose: 200.0 mg/kg/injection, schedule: Q01DX001 (ip), vehicle: saline
[7] = dose: 100.0 mg/kg/injection, schedule: Q01DX001 (ip), vehicle: carboxymethylcellulose (CMC)
[8] = dose: 200.0 mg/kg/injection, schedule: Q01DX001 (ip), vehicle: carboxymethylcellulose (CMC)
[9] = dose: 400.0 mg/kg/injection, schedule: Q01DX001 (ip), vehicle: carboxymethylcellulose (CMC)

Measured: T/C

CCOC(=O)Nc1nc(Cl)c(Cl)nc1Cl
inactive: dose: 25.0 mg/kg/injection, schedule: Q01DX009 (ip), vehicle: water 93 % of control | dose: 50.0 mg/kg/injection, schedule: Q01DX009 (ip), vehicle: water 102 % of control | dose: 100.0 mg/kg/injection, schedule: Q01DX009 (ip), vehicle: water 98 % of control | dose: 200.0 mg/kg/injection, schedule: Q01DX009 (ip), vehicle: water 91 % of control | dose: 400.0 mg/kg/injection, schedule: Q01DX009 (ip), vehicle: water 96 % of control

N=C(N)c1cccc(NC(=O)c2cccc(C(=O)Nc3cccc(C(=N)N)c3)c2)c1
inactive: dose: 15.0 mg/kg/injection, schedule: Q01DX Z (ip), vehicle: saline 95 % of control | dose: 30.0 mg/kg/injection, schedule: Q01DX Z (ip), vehicle: saline 98 % of control | dose: 60.0 mg/kg/injection, schedule: Q01DX Z (ip), vehicle: saline 98 % of control | dose: 120.0 mg/kg/injection, schedule: Q01DX Z (ip), vehicle: saline 93 % of control | dose: 125.0 mg/kg/injection, schedule: Q01DX Z (ip), vehicle: water 96 % of control | dose: 250.0 mg/kg/injection, schedule: Q01DX Z (ip), vehicle: water 98 % of control | dose: 500.0 mg/kg/injection, schedule: Q01DX Z (ip), vehicle: water 104 % of control

Cc1ccc(NC(=O)c2ccccc2Cl)cc1C
inactive: dose: 100.0 mg/kg/injection, schedule: Q01DX009 (ip), vehicle: saline with Tween-80 90 % of control | dose: 200.0 mg/kg/injection, schedule: Q01DX009 (ip), vehicle: saline with Tween-80 97 % of control | dose: 400.0 mg/kg/injection, schedule: Q01DX009 (ip), vehicle: saline with Tween-80 104 % of control

O=C(O)CCCCCNC(=O)C(F)(F)F
inactive: dose: 100.0 mg/kg/injection, schedule: Q04DX003 (ip), vehicle: other 94 % of control | dose: 200.0 mg/kg/injection, schedule: Q04DX003 (ip), vehicle: other 103 % of control | dose: 400.0 mg/kg/injection, schedule: Q04DX003 (ip), vehicle: other 87 % of control

Cc1ccc(C(Br)C2=CC(C)(C)c3ccccc3C2=O)cc1 (configuration not stated)
inactive: dose: 100.0 mg/kg/injection, schedule: Q01DX009 (ip), vehicle: Klucel (hydroxypropylcellulose) (HPC) 106 % of control | [1] 106 % of control | dose: 200.0 mg/kg/injection, schedule: Q01DX009 (ip), vehicle: Klucel (hydroxypropylcellulose) (HPC) 101 % of control | [2] 104 % of control | dose: 400.0 mg/kg/injection, schedule: Q01DX009 (ip), vehicle: Klucel (hydroxypropylcellulose) (HPC) 98 % of control | [3] 104 % of control

CCCCc1c(C)nc(N)nc1N
inactive: dose: 3.12 mg/kg/injection, schedule: Q01DX001 (ip), vehicle: Klucel (hydroxypropylcellulose) (HPC) 105 % of control | dose: 6.25 mg/kg/injection, schedule: Q01DX001 (ip), vehicle: Klucel (hydroxypropylcellulose) (HPC) 110 % of control | dose: 12.5 mg/kg/injection, schedule: Q01DX001 (ip), vehicle: Klucel (hydroxypropylcellulose) (HPC) 111 % of control | [4] 98 % of control

O=C(NCCCCC(NC(=O)OCc1ccccc1)C(=O)NCCCCCCNCCCCCCNC(=O)C(CCCCNC(=O)OCc1ccccc1)NC(=O)OCc1ccccc1)OCc1ccccc1 (configuration not stated)
inactive: [5] 94 % of control | [6] 92 % of control | dose: 400.0 mg/kg/injection, schedule: Q01DX001 (ip), vehicle: saline 96 % of control

Cc1cc([N+](=O)[O-])c2nnnn2c1
inactive: dose: 100.0 mg/kg/injection, schedule: Q01DX001 (ip), vehicle: other 108 % of control | dose: 200.0 mg/kg/injection, schedule: Q01DX001 (ip), vehicle: other 90 % of control

CC(C)C(C)(O)C(N)=O (configuration not stated)
inactive: [5] 106 % of control | [6] 101 % of control

O=C1C=CC(=O)N1c1nccs1
inactive: dose: 100.0 mg/kg/injection, schedule: Q04DX003 (ip), vehicle: saline with Tween-80 95 % of control | dose: 200.0 mg/kg/injection, schedule: Q04DX003 (ip), vehicle: saline with Tween-80 90 % of control | dose: 400.0 mg/kg/injection, schedule: Q04DX003 (ip), vehicle: saline with Tween-80 95 % of control

c1ccc(C(c2ccccc2)[P+](c2ccccc2)(c2ccccc2)c2ccccc2)cc1
inactive: dose: 0.75 mg/kg/injection, schedule: Q01DX005 (ip), vehicle: gum acacia 106 % of control and 110 % of control | dose: 1.5 mg/kg/injection, schedule: Q01DX005 (ip), vehicle: gum acacia 106 % of control | dose: 1.5 mg/kg/injection, schedule: Q01DX009 (ip), vehicle: gum acacia 111 % of control | dose: 3.0 mg/kg/injection, schedule: Q01DX009 (ip), vehicle: gum acacia 111 % of control | dose: 3.12 mg/kg/injection, schedule: Q04DX002 (ip), vehicle: gum acacia 100 % of control | dose: 6.25 mg/kg/injection, schedule: Q01DX005 (ip), vehicle: gum acacia 95 % of control | dose: 6.25 mg/kg/injection, schedule: Q04DX002 (ip), vehicle: gum acacia 95 % of control | dose: 12.5 mg/kg/injection, schedule: Q04DX002 (ip), vehicle: gum acacia 111 % of control and 92 % of control

CCOC(=O)c1nn2c(C)nnc2s1
inactive: [7] 98 % of control | [8] 96 % of control | [9] 98 % of control

CCCCCCCCCCOc1ccc(C2=C(c3ccccc3)C(=O)C(c3ccccc3)=C2c2ccccc2)cc1
inactive: [7] 100 % of control | [8] 105 % of control | [9] 94 % of control

Nc1cc2scnc2c(N)n1
inactive: dose: 100.0 mg/kg/injection, schedule: Q01DX001 (ip), vehicle: Klucel (hydroxypropylcellulose) (HPC) 94 % of control | dose: 200.0 mg/kg/injection, schedule: Q01DX001 (ip), vehicle: Klucel (hydroxypropylcellulose) (HPC) 91 % of control | dose: 400.0 mg/kg/injection, schedule: Q01DX001 (ip), vehicle: Klucel (hydroxypropylcellulose) (HPC) 86 % of control

O=C(O)C1C2CC3OCC1C3C2 (configuration not stated)
inactive: dose: 100.0 mg/kg/injection, schedule: Q04DX003 (ip), vehicle: alkali diluted with saline 104 % of control | dose: 200.0 mg/kg/injection, schedule: Q04DX003 (ip), vehicle: alkali diluted with saline 98 % of control | dose: 400.0 mg/kg/injection, schedule: Q04DX003 (ip), vehicle: alkali diluted with saline 93 % of control

CC(=O)NC1=C(Oc2ccc(C)cc2)C(=O)c2ccccc2C1=O
inactive: dose: 75.0 mg/kg/injection, schedule: Q01DX001 (ip), vehicle: saline 98 % of control | dose: 150.0 mg/kg/injection, schedule: Q01DX001 (ip), vehicle: saline 96 % of control

CCCCCCC(CO)CCCC (configuration not stated)
inactive: [1] 97 % of control | [2] 97 % of control | [3] 100 % of control

CC(C)=CC[P+](c1ccccc1)(c1ccccc1)c1ccccc1
inactive: dose: 3.13 mg/kg/injection, schedule: Q01DX009 (ip), vehicle: saline 111 % of control | dose: 6.25 mg/kg/injection, schedule: Q01DX009 (ip), vehicle: saline 106 % of control | dose: 12.5 mg/kg/injection, schedule: Q01DX009 (ip), vehicle: saline 100 % of control and 106 % of control | [4] 102 % of control | dose: 25.0 mg/kg/injection, schedule: Q01DX009 (ip), vehicle: saline 98 % of control | dose: 50.0 mg/kg/injection, schedule: Q01DX001 (ip), vehicle: saline 90 % of control | dose: 50.0 mg/kg/injection, schedule: Q01DX009 (ip), vehicle: saline 98 % of control and 90 % of control

COc1cc2c(cc1OC)-c1cc3ccc(OC)c(OC)c3c[n+]1CC2
inactive: dose: 6.25 mg/kg/injection, schedule: Q04DX003 (ip), vehicle: saline 105 % of control | dose: 12.5 mg/kg/injection, schedule: Q04DX003 (ip), vehicle: saline 101 % of control | dose: 25.0 mg/kg/injection, schedule: Q04DX003 (ip), vehicle: saline 103 % of control

NCCN1C(=O)C2C3CCC(O3)C2C1=O (configuration not stated)
inactive: [7] 97 % of control and 107 % of control | dose: 100.0 mg/kg/injection, schedule: Q04DX002 (ip), vehicle: carboxymethylcellulose (CMC) 97 % of control and 88 % of control | dose: 100.0 mg/kg/injection, schedule: Q04DX003 (ip), vehicle: carboxymethylcellulose (CMC) 101 % of control and 112 % of control | [8] 97 % of control and 104 % of control | dose: 200.0 mg/kg/injection, schedule: Q04DX002 (ip), vehicle: carboxymethylcellulose (CMC) 93 % of control and 94 % of control | dose: 200.0 mg/kg/injection, schedule: Q04DX003 (ip), vehicle: carboxymethylcellulose (CMC) 104 % of control and 105 % of control | [9] 96 % of control and 103 % of control | dose: 400.0 mg/kg/injection, schedule: Q04DX002 (ip), vehicle: carboxymethylcellulose (CMC) 108 % of control and 88 % of control | dose: 400.0 mg/kg/injection, schedule: Q04DX003 (ip), vehicle: carboxymethylcellulose (CMC) 96 % of control and 100 % of control
